Assay results: patent US20250026753A1, “FUSED TRIAZINONE DERIVATIVES AND METHODS OF USING THE SAME” (Rgenta Therapeutics, Inc., priority 2021, published 2025)
Structures can show the parent of a compound that is named as a salt.

Experiments:
[1] = test system: K562; assay: Cell proliferation assay (CellTiterGlo, 72 hour incubation), K562; type: cell-based; settings: Homo sapiens, K562 cells, inhibition of cell proliferation, CellTiterGlo luminescence
Experimental: (§1) Various cancer cell lines including K562 and COLO201, were treated with the compounds of the present disclosure to assess their effect on inhibiting cell proliferation.
(§2) For compound preparation, test compounds were diluted in duplicates from 10 mM stocks in 11-points 1:3 serial dilutions in DMSO. Then 125 nL test compounds at the serial dilutions were dispensed into 384-well assay plate using Echo dispenser. Staurosporine at 1 mM stock (5 μM final concentration) and DMSO (0.500 final concentration) were used as the positive and negative controls respectively.
(§3) To prepare cell lines, each frozen cell line stock was resuspended and grown in proper growth medium to a density of 40,000 cells/mL. Then 25 μL of cell suspension were dispensed into the assay plate to give seed cell density at 1,000 cells/well, compounds at 50 μM top concentration with 11-point serial dilutions, and 0.5% o DMSO final concentration. Assay plates were then centrifuged at 300 rpm for 1 minute and then incubated at 37° C., 9500 humidity, 500 CO2 for 72 hours. After the 72 hour incubation, the assay plate and its contents were equilibrated at room temperature for approximately 30 minutes. 25 μL of CellTiterGlo reagent was added to the assay plate and mixed for two minutes on an orbital shaker. Then after 10 minutes of incubation of assay plate at from temperature, the luminescence (RLU) signals in each well were recorded using Envision plate reader, then converted to percentage inhibition values using the signals in staurosporine and DMSO treated wells as the references. IC50 values were determined by curve fitting in Levenberg-Marquardt algorithm.

[2] = test system: COLO201; assay: Cell proliferation assay (CellTiterGlo, 72 hour incubation), COLO201; type: cell-based; settings: Homo sapiens, COLO 201, COLO201 cells, inhibition of cell proliferation, CellTiterGlo luminescence
Experimental: as §1, §2, §3

| Structure (SMILES) | IC50 [1] [µM] | IC50 [2] [µM] |
| --- | --- | --- |
| COc1c(N2CCNCC2)ccc2nc(-c3cc(F)c4nc(C)cn4c3)nc(=O)n12 [Compound 120, 2-(8-fluoro-2-methylimidazo[1,2-a]pyridin-6-yl)-6-methoxy-7-(piperazin-1-yl)-4H-pyrido[1,2-a][1,3,5]triazin-4-one formic acid] | ≥ 10 | ≥ 10 |
| Cc1cn2cc(-c3nc(=O)n4cc(N5CCNCC5)ccc4n3)cc(C)c2n1 [Compound 126, 2-2,8-dimethylimidazo[1,2-a]pyridin-6-yl-7-(piperazin-1-yl)-4H-pyrido[1,2-a][1,3,5]triazin-4-one hydrochloride] | 1 to 10 | – |
| Cc1cn2cc(-c3nc(=O)n4cc(N5CCNCC5)cc(C)c4n3)cc(F)c2n1 [Compound 108, 2-(8-fluoro-2-methylimidazo[1,2-a]pyridin-6-yl)-9-methyl-7-(piperazin-1-yl)-4H-pyrido[1,2-a][1,3,5]triazin-4-one hydrochloride] | 1 to 10 | < 1 |
| Cc1cn2cc(-c3nc(=O)n4cc(C5CCNC5)ccc4n3)cc(F)c2n1 (centres unmarked) [Compound 112, 2-(8-fluoro-2-methylimidazo[1,2-a]pyridin-6-yl)-7-(pyrrolidin-3-yl)-4H-pyrido[1,2-a][1,3,5]triazin-4-one hydrochloride] | 1 to 10 | – |
| COc1cc(N2CCNCC2)cn2c(=O)nc(-c3cc(F)c4nc(C)cn4c3)nc12 [Compound 114, 2-(8-fluoro-2-methylimidazo[1,2-a]pyridin-6-yl)-9-methoxy-7-(piperazin-1-yl)-4H-pyrido[1,2-a][1,3,5]triazin-4-one hydrochloride] | 1 to 10 | 1 to 10 |
| Cc1cn2cc(-c3nc(=O)n4cc(N5CCNC(C)(C)C5)cc(F)c4n3)cc(F)c2n1 [Compound 130, 7-(3,3-dimethylpiperazin-1-yl)-9-fluoro-2-{8-fluoro-2-methylimidazo[1,2-a]pyridin-6-yl}-4H-pyrido[1,2-a][1,3,5]triazin-4-one] | < 1 | – |
| Cc1cn2cc(-c3nc(=O)n4cc(N5CCN(C)[C@@H](C)C5)cc(C)c4n3)cc(F)c2n1 [Compound 124, (S)-7-(3,4-dimethylpiperazin-1-yl)-2-(8-fluoro-2-methylimidazo[1,2-a]pyridin-6-yl)-9-methyl-4H-pyrido[1,2-a][1,3,5]triazin-4-one] | 1 to 10 | – |
| Cc1cn2cc(-c3nc(=O)n4cc(N5CCN[C@@H](C)C5)cc(F)c4n3)cc(C)c2n1 [Compound 121, (S)-2-(2,8-dimethylimidazo[1,2-a]pyridin-6-yl)-9-fluoro-7-(3-methylpiperazin-1-yl)-4H-pyrido[1,2-a][1,3,5]triazin-4-one hydrochloride] | < 1 | < 1 |
| Cc1cn2cc(-c3nc(=O)n4cc(N5CCNCC5)cc(F)c4n3)cc(F)c2n1 [Compound 110, 9-fluoro-2-(8-fluoro-2-methylimidazo[1,2-a]pyridin-6-yl)-7-(piperazin-1-yl)-4H-pyrido[1,2-a][1,3,5]triazin-4-one hydrochloride] | < 1 | < 1 |
| Cc1cn2cc(-c3nc(=O)n4cc(N5CC6CCCC(C5)N6)ccc4n3)cc(F)c2n1 [Compound 118, 7-(3,9-diazabicyclo[3.3.1]nonan-3-yl)-2-(8-fluoro-2-methylimidazo[1,2-a]pyridin-6-yl)-4H-pyrido[1,2-a][1,3,5]triazin-4-one hydrochloride] | < 1 | 1 to 10 |
| Cc1cc2cc(-c3nc(=O)n4cc(N5CCN[C@@H](C)C5)cc(C)c4n3)cc(C)n2n1 [Compound 129, 2-{2,7-dimethylpyrazolo[1,5-a]pyridin-5-yl}-9-methyl-7-[(3S)-3-methylpiperazin-1-yl]-4H-pyrido[1,2-a][1,3,5]triazin-4-one] | 1 to 10 | – |
| Cc1cn2cc(-c3nc(=O)n4cc(N5CCNC6(CC6)C5)cc(C)c4n3)cc(F)c2n1 [Compound 132, 7-{4,7-diazaspiro[2.5]octan-7-yl}-2-{8-fluoro-2-methylimidazo[1,2-a]pyridin-6-yl}-9-methyl-4H-pyrido[1,2-a][1,3,5]triazin-4-one] | 1 to 10 | – |
| Cc1cc2cc(-c3nc(=O)n4cc(N5CCN[C@@H](C)C5)ccc4n3)cc(C)n2n1 [Compound 134, (S)-2-(2,7-dimethylpyrazolo[1,5-a]pyridin-5-yl)-7-(3-methylpiperazin-1-yl)-4H-pyrido[1,2-a][1,3,5]triazin-4-one] | 1 to 10 | – |
| C[C@H]1CN(c2ccc3nc(-c4cc(F)c5nn(C)cc5c4)nc(=O)n3c2)CCN1 [Compound 133, (S)-2-(7-fluoro-2-methyl-2H-indazol-5-yl)-7-(3-methylpiperazin-1-yl)-4H-pyrido[1,2-a][1,3,5]triazin-4-one hydrochloride] | < 1 | 1 to 10 |
| Cc1cn2cc(-c3nc(=O)n4cc(N5CC6(CNC6)C5)ccc4n3)cc(F)c2n1 [Compound 127, 7-2,6-diazaspiro[3.3]heptan-2-yl-2-8-fluoro-2-methylimidazo[1,2-a]pyridin-6-yl-4H-pyrido[1,2-a][1,3,5]triazin-4-one trifluoroacetic acid] | 1 to 10 | ≥ 10 |
| Cc1cn2cc(-c3nc(=O)n4cc(N5CCN[C@@H](C)C5)cc(F)c4n3)cc(F)c2n1 [Compound 116, (S)-9-fluoro-2-(8-fluoro-2-methylimidazo[1,2-a]pyridine-6-yl)-7-(3-methylpiperazin-1-yl)-4H-pyrido[1,2-a][1,3,5]triazin-4-one] | < 1 | < 1 |
| Cc1cc2cc(-c3nc(=O)n4cc(N5CCNC(C)(C)C5)cc(F)c4n3)cc(C)n2n1 [Compound 135, 7-(3,3-dimethylpiperazin-1-yl)-2-(2,7-dimethylpyrazolo[1,5-a]pyridin-5-yl)-9-fluoro-4H-pyrido[1,2-a][1,3,5]triazin-4-one] | 1 to 10 | – |
| COc1cc2nc(-c3cc(F)c4nc(C)cn4c3)nc(=O)n2cc1N1CCNCC1 [Compound 119, 2-(8-fluoro-2-methylimidazo[1,2-a]pyridin-6-yl)-8-methoxy-7-(piperazin-1-yl)-4H-pyrido[1,2-a][1,3,5]triazin-4-one] | 1 to 10 | 1 to 10 |
| Cc1cc2cc(-c3nc(=O)n4cc(N5CCN[C@@H](C)C5)cc(F)c4n3)cc(C)n2n1 [Compound 131, 2-{2,7-dimethylpyrazolo[1,5-a]pyridin-5-yl}-9-fluoro-7-[(3S)-3-methylpiperazin-1-yl]-4H-pyrido[1,2-a][1,3,5]triazin-4-one] | < 1 | < 1 |
| Cc1cn2cc(-c3nc(=O)n4cc(N5CC6CNCC6C5)ccc4n3)cc(F)c2n1 (centres unmarked) [Compound 106, 2-(8-fluoro-2-methylimidazo[1,2-a]pyridin-6-yl)-7-(hexahydropyrrolo[3,4-c]pyrrol-2(1H)-yl)-4H-pyrido[1,2-a][1,3,5]triazin-4-one hydrochloride] | ≥ 10 | ≥ 10 |
| CC[C@H]1CN(c2cc(F)c3nc(-c4cc(F)c5nc(C)cn5c4)nc(=O)n3c2)CCN1 [Compound 128, 7-[(3S)-3-ethylpiperazin-1-yl]-9-fluoro-2-{8-fluoro-2-methylimidazo[1,2-a]pyridin-6-yl}-4H-pyrido[1,2-a][1,3,5]triazin-4-one] | < 1 | – |
| Cc1cn2cc(-c3nc(=O)n4c(C)c(N5CCNCC5)ccc4n3)cc(F)c2n1 [Compound 122, 2-(8-fluoro-2-methylimidazo[1,2-a]pyridin-6-yl)-6-methyl-7-(piperazin-1-yl)-4H-pyrido[1,2-a][1,3,5]triazin-4-one hydrochloride] | 1 to 10 | ≥ 10 |
| Cc1cn2cc(-c3nc(=O)n4cc(N5CCN[C@H](C)C5)ccc4n3)cc(F)c2n1 [Compound 102, (R)-2-(8-fluoro-2-methylimidazo[1,2-a]pyridin-6-yl)-7-(3-methylpiperazin-1-yl)-4H-pyrido[1,2-a][1,3,5]triazin-4-one formic acid] | < 1 | 1 to 10 |
| Cc1cn2cc(-c3nc(=O)n4cc(N5CCNC(C)(C)C5)cc(C)c4n3)cc(F)c2n1 [Compound 125, 7-(3,3-dimethylpiperazin-1-yl)-2-(8-fluoro-2-methylimidazo [1,2-a]pyridin-6-yl)-9-methyl-4H-pyrido[1,2-a][1,3,5]triazin-4-one hydrochloride] | 1 to 10 | – |
| Cc1cn2cc(-c3nc(=O)n4cc(N5CCNCC5)ccc4n3)cc(F)c2n1 [Compound 99, 2-{8-fluoro-2-methylimidazo[1,2-a]pyridin-6-yl}-7-(piperazin-1-yl)-4H-pyrido[1,2-a][1,3,5]triazin-4-one] | < 1 | – |
| Cc1cn2cc(-c3nc(=O)n4cc(N5CCN[C@@H](C)C5)cc(C)c4n3)cc(C)c2n1 [Compound 123, (S)-2-(2,8-dimethylimidazo[1,2-a]pyridin-6-yl)-9-methyl-7-(3-methylpiperazin-1-yl)-4H-pyrido[1,2-a][1,3,5]triazin-4-one hydrochloride] | 1 to 10 | – |
| Cc1cn2cc(-c3nc(=O)n4cc(N5CCNCC5)ccc4n3)cc(F)c2n1 [Compound 100, 2-(8-fluoro-2-methylimidazo[1,2-a]pyridin-6-yl)-7-(piperazin-1-yl)-4H-pyrido[1,2-a][1,3,5]triazin-4-one hydrochloride] | – | < 1 |
